The nature of this data set: Pharmacokinetic activity in rats: IV bolus and oral gavage; plasma, brain and CSF levels by LC-MS/MS. The class given is in vivo, Male Sprague-Dawley rats. The note with it: rat; for Tmax: PO administration of Compound 6, 10 mg/kg, read-out: median Tmax; for presence in brain samples: levels believed due to contamination of brain samples with blood. How it is done: Male Sprague-Dawley rats (n=3/group) were assigned to Groups 1 to 6. Group 1 was administered an intravenous bolus dose of 1 mg/kg a test compound in 30% polyethyleneglycol-200 (PEG-200): 10% DMSO in saline. Serial samples of blood were collected at 0.05, 0.15, 0.75, 1.5, 3, 6, 10 and 24 hours via an implanted jugular vein catheter. Groups 2-6 received oral gavage doses of a test compound, formulated in 100% PEG300 (10 mg/kg). Rats from groups 2-6 were sacrificed at 0.25, 2, 6, 10 or 24 hours post-dose and blood samples (1 mL via cardiac puncture) were collected into chilled tubes containing K2EDTA as the anticoagulant. CSF and brain tissue were also collected at these time points. Blood samples were immediately centrifuged at 3000 g for 5 minutes under refrigerated conditions (4° C.). Plasmas and CSF samples were mixed with an aqueous solution of ascorbic acid to reach a final concentration of 2%. Brain, plasma and CSF samples were stored at −80° C. until analysis. The test compound and by-product concentrations were determined by LC-MS/MS. The eluent from a reversed-phase gradient (water/acetonitrile both containing 0.1% v/v formic acid) on a 1290 UHPLC system (Agilent Technologies, Stockport, UK) was introduced by positive electrospray ionization into an API6500 mass spectrometer (AB Sciex, Warrington, UK) and analyzed by multiple reaction monitoring (MRM). The lower limit of quantification (LLOQ) was in the range 1-10 ng/mL for the test compound and by-products. The mean plasma concentration-time data for each group were used to calculate pharmacokinetic parameters of the test compound and by-products with the software program Phoenix WinNonlin version 6.4 (Certara L. P., Princeton, N.J.).

Where [1] appears, read: male, Sprague-Dawley, plasma, PO administration of Compound 6, 10 mg/kg in 100% PEG300, mean, read-out: plasma Cmax.
The mark [2] stands for this setting: male, Sprague-Dawley, IV bolus 1 mg/kg, plasma.

Where two headings read alike, the source gives them in different places.

In the case of `CCOC(=O)CN1N=C(c2ccc(S(C)(=O)=O)cc2)C(C)(NO)C1=O` (stereo not shown) [Compound 6, Ethyl 2-[4-(hydroxyamino)-3-(4-methanesulfonylphenyl)-4-methyl-5-oxo-4,5-dihydro-1H-pyrazol-1-yl]acetate], the “presence in brain samples” value is listed as “Traces”. Also, the Kp (male, Sprague-Dawley, CSF, PO 10 mg/kg, 0.25-2 h, read-out: mean CSF:plasma ratio) was found to be 4. Further, where the note is “male, Sprague-Dawley, CSF, PO Compound 6 10 mg/kg, at 0.25 h, read-out: Cmax in CSF”, the Cmax is 26 ± 18 ng/mL. Also, the Kp at 0.25 h (male, Sprague-Dawley, brain, PO 10 mg/kg, 0.25 h, read-out: mean brain:plasma ratio) was determined as 1.1. The Cmax (male, Sprague-Dawley, brain, PO Compound 6 10 mg/kg, at 0.25 h, read-out: Cmax in brain) was determined as 8 ± 2 ng/g. Also, the clearance (male, Sprague-Dawley, plasma, IV bolus 1 mg/kg in 30% PEG-200:10% DMSO in saline) was found to be 41 ± 2 mL/min/kg. The Vd (male, Sprague-Dawley, plasma, IV bolus 1 mg/kg, read-out: volume of distribution) came out at 1.1 ± 0.1 L/kg. In addition, the Cmax under setting [1] turned out to be 8 ng/mL. Under setting [2], the C0 turned out to be 110 ± 10 ng/mL and the half-life is 24 ± 0.6 min. The Tmax (male, Sprague-Dawley, plasma) was found to be 15 min. Also, the “absorption after oral dosing” value (PO 10 mg/kg) was “very well absorbed”. Besides, the metabolism result (after oral dosing) is recorded as “rapidly metabolized at the ester function”.
Turning to `Cc1c(-c2ccc(S(C)(=O)=O)cc2)nn(CC(=O)O)c1O` [2-[5-hydroxy-3-(4-methanesulfonylphenyl)-4-methyl-1H-pyrazol-1-yl]acetic acid], under “after dosing Compound 6”, the “levels in plasma, brain and CSF (compared with Compound 6a)” value was “much lower levels”.
Take `CCOC(=O)Cn1nc(-c2ccc(S(C)(=O)=O)cc2)c(C)c1O` [ethyl 2-[5-hydroxy-3-(4-methanesulfonylphenyl)-4-methyl-1H-pyrazol-1-yl]acetate]: the “levels in plasma, brain and CSF (compared with Compound 6a)” value (after dosing Compound 6) is recorded as “much lower levels”.
With `CC1(NO)C(=O)N(CC(=O)O)N=C1c1ccc(S(C)(=O)=O)cc1` (stereo not shown) [Compound 6a, 2-[4-(hydroxyamino)-3-(4-methanesulfonylphenyl)-4-methyl-5-oxo-4,5-dihydro-1H-pyrazol-1-yl]acetic acid], the “presence in brain samples” value is given as “Traces”. Moreover, the Cmax (male, Sprague-Dawley, CSF, PO Compound 6 10 mg/kg, at 2 h, read-out: Cmax in CSF) came out at 107 ± 33 ng/mL. In addition, under “male, Sprague-Dawley, brain, PO Compound 6 10 mg/kg, at 2 h, read-out: Cmax in brain”, the maximum concentration (Cmax) amounted to 85 ± 22 ng/g. The Cmax under setting [1] is 5220 ng/mL. Also, the Tmax (male, Sprague-Dawley, plasma) was 15 min. Also, the amount in brain entry (PO Compound 6 10 mg/kg) is listed as “low”. The “plasma concentration relative to parent compound (Compound 6)” value (PO Compound 6 10 mg/kg, at Cmax (0.25 h)) is reported as 700 fold. The “plasma concentration relative to parent compound (Compound 6)” value (PO Compound 6 10 mg/kg, by 2 h) amounted to 2000 fold. For the same molecule, the “share among drug-related components observed in the samples” value (after dosing Compound 6) was “major drug-related component”. Further, under “after oral dosing of Compound 6”, the distribution result is on record as “restricted to the periphery”.

The record behind these values is patent publication US10723704B2, “Pyrazolone derivatives as nitroxyl donors” (Cardioxyl Pharmaceuticals, Inc., priority 2015, dated 2020).
